From US20180318285A1, “METHODS FOR TREATMENT OF AUTISM SPECTRUM DISORDERS” (PRESIDENT AND FELLOWS OF HARVARD COLLEGE, priority 2015, published 2018)
Where two headings read alike, the source gives them in different places.

Key:
[1] = tested on: MeCP2-repressed (MR) long genes in MeCP2 knockdown primary cortical neurons; assay: Nanostring nCounter expression of MeCP2-repressed long genes in MeCP2 shRNA knockdown primary cortical neurons treated with topotecan; assay type: cell-based, mouse
Method: Primary cortical neurons were prepared from E16.5 mouse embryos and cultured as described by Kim et al. For lentiviral-mediated shRNA knockdown, virus was prepared as described in Tiscornia et al.^48 using the MeCP2 shRNA and control shRNA plasmids previously validated in Zhou et al.^49. Virus was concentrated and titrated using the GFP signal expressed from IRES GFP in the virus. After one day in vitro (DIV), cells were infected with lentivirus (knockdown or control) at an MOI of ˜5, such that >90% of cells were infected. […] RNA samples were processed and analyzed using the Nanostring nCounter assay as described above, with the exception that 6 control genes were used for normalization. […]
For non-amplification-based gene expression analysis, Nanostring nCounter reporter CodeSets were designed to detect candidate MeCP2-repressed genes in 250 ng of total RNA extracted from MeCP2 KO and R306C mice. […] Briefly, total RNA was incubated at 65° C. with reporter and capture probes in hybridization buffer overnight, and captured probes were purified and analyzed on the nCounter Digital Analyzer. […] Significant differences between wild-type and MeCP2 KO or MeCP2 R306C samples (p<0.01) were also detected by paired two-tailed t-test comparing the paired mean values for each gene (averaged across samples within each genotype) between genotypes

[2] = tested on: MeCP2 hemizygous male mice; assay: In vivo topotecan treatment by intracerebroventricular osmotic pump: survival and behavior score; parameters: species or system mouse; details: 25 μM topotecan in 28-day osmotic pump to right lateral ventricle, 8 week old mice, N=7-8
Method: MeCP2 hemizygous male mice at 8 weeks of age (Jackson Labs) were separated into two equal groups based weight. Using standard stereotaxic techniques, cannula (Alzet, Brain Infusion Kit 3) were guided to the right lateral ventricle (from bregma; A/P 1 mm, LV 1 mm) and connected to an osmotic pump (Alzet, 1004, 28-day release) that was implanted subcutaneously. The osmotic pumps had been previously loaded with either vehicle (50 mM tartaric acid) or 25 μM topotecan and primed at 37° C. for approximately 2 days prior to implantation. All mice survived surgery and the following postoperative day. Survival monitoring began on postoperative day 2 and behavioral scoring began on postoperative day 4. MeCP2 behavior was scored as previously reported by Guy et al. Science 2005. Briefly, 6 behavioral domains are monitored to capture the progression of the MeCP2 phenotype: locomotor activity, gait, hindlimb clasp, tremor, breathing, and overall condition. Each behavioral domain is scored as 0 (absence), 1 (mild to moderate), or 2 (severe), and summed to give the total behavioral score. Survival statistics: p=0.09; Mantel-Cox. Behavioral statistics: * p<0.05; 2-way ANOVA, Fisher's LSD. N=7-8.

[3] = tested on: MeCP2 knockdown primary cortical neurons; assay: Ribosomal RNA (Bioanalyzer 18S/28S) and total RNA content of MeCP2 knockdown neurons treated with topotecan; assay type: cell-based, mouse; details: 50 nM topotecan
[4] = cited from earlier work

| SMILES | concentration of topotecan that most effectively reverses overexpression of long genes ([1]; MeCP2 knockdown cortical neurons) [nM] | reversal of long gene misregulation (up-regulation of long genes after MeCP2 knockdown) ([1]; cultured cortical neurons, MeCP2 RNAi knockdown, topotecan from DIV 4 to DIV 10) | Behavioral statistics, p (2-way ANOVA, Fisher's LSD), total behavioral score, topotecan versus vehicle [2] | Survival statistics, p (Mantel-Cox), topotecan versus vehicle [2] | effect on decreased ribosomal RNA content of neurons lacking MeCP2 [3] | doxorubicin concentrations in the brain ([4]; injection of the drug alone or the uncoated nanoparticle) | doxorubicin concentrations in the brain ([4]; nanoparticles overcoated with polysorbate 80, intravenous injection of 5 mg/kg) |
| --- | --- | --- | --- | --- | --- | --- | --- |
| CC[C@@]1(O)C(=O)OCc2c1cc1n(c2=O)Cc2cc3c(CN(C)C)c(O)ccc3nc2-1 [topotecan, Topotecan] | 50 | dose-dependent reversal of long gene misregulation | < 0.05 | 0.09 | partially reverses the decreased ribosomal RNA content | – | – |
| COc1cccc2c1C(=O)c1c(O)c3c(c(O)c1C2=O)C[C@@](O)(C(=O)CO)C[C@@H]3O[C@H]1C[C@H](N)[C@H](O)[C@H](C)O1 [doxorubicin] | – | – | – | – | – | no detectable increase | up to 6 μg/g |
